# Read-outs that look alike come from different tables or passages of the source.
# How the values were obtained:
# [1] = for Rumen contraction: over four days after treatment, from 1 contraction/min
# Excerpt: Four non-pregnant, non-lactating cows naturally infected with O. ochengi were purchased from farmers in the Vina Division of the Adamawa Region and acclimatized at the IRAD Wakwa site for two weeks before the start of the trial. Cows were 3–6 years old and weighed 185–300 kg. They were housed in a 35 m^2 enclosure at night and fed with cotton seed cake (2 g/kg bodyweight) in the morning before grazing them on a 1 ha Brachiaria ruziziensis paddock between 9 am and 4 pm daily. Water and salt were supplied ad libitum when housed. Each cow was randomly allocated (by ear-tag number using an online research randomizer [available at https://www.randomizer.org]) to receive a single low dose of emodepside 0.15 mg/kg, a single high dose of emodepside 0.75 mg/kg, a low dose twice (emodepside 0.15 mg/kg on two consecutive days), or vehicle only (solketal). Prior to treatment, the cows were sedated with xylazine hydrochloride (Rompun). Verum or vehicle was administered IV into the jugular vein using a perfusion apparatus (Braun Perfusor Space) following an identical protocol to the Holstein pre-study described above.
# [2] = Blood glucose in the main trial, test-strip assay; format: in vivo, zebu (Ngaoundéré Gudali) cattle (B. t. indicus)
# Protocol: Glucose concentrations were measured pre- and post-chemotherapy using venous blood, which was analyzed in a test-strip assay (MediTouch 2 blood glucose monitor, Medisana, Neuss, Germany). Both individual animal and group blood-glucose concentrations were compared with a standard reference range for cattle (45–75 mg/dL [58]). To evaluate group-level effects, 95% confidence intervals (CI) were calculated using the group mean, SD and sample number for each group at each respective timepoint, with changes in blood glucose concentration considered significant if either the lower CI exceeded the upper limit of the standard reference range, or the upper CI was below the lower limit of the standard reference range.
# [3] = rat, over four weeks orally in diet; cited from earlier work
# Excerpt: Blood glucose has been identified as a simple biomarker for emodepside exposure in humans.
# [4] = system: Onchocerca ochengi microfilariae; test: Dermal microfilarial load (area under the density-time curve); format: in vivo; settings: MRSM, 4 mg/kg every other day for 3 days; vs placebo
# Excerpt: Here, the null hypothesis, H0, is that the parameter m is not different to 0. If H0 can be rejected, a concentration-dependent effect of emodepside can be assumed. The alpha level selected for statistical significance was 5%. We considered three PD endpoints, a) uterine contents (with oocytes, developing embryonic stages, normal intrauterine Mf and degenerate intrauterine Mf considered separately), b) skin Mf load, and c) male and female motility (separately). Mf load is defined as the area under the curve of observed counts over time according to Eq 4: Mfload=∑i=2nMfdensityi+Mfdensityi−1/2*ti−ti−1 (4) per individual treated animal. To increase the robustness of the analysis, only animals presenting a skin Mf load of ≥100/100 mg skin at day -1 were included.
# The same principle was applied to the analysis of the uterine contents. In order to test a dose-dependent effect, and an effect over placebo, the log load of uterine contents or Mf was used as the PD endpoint E in Eq 3, and exposure C was the sum of doses. Over all doses and individual animals, an effect size (m) and corresponding statistics were calculated using R’s lm function.
# [5] = system: Onchocerca ochengi adult male worms; test: Ex vivo visual motility assessment of adult male worms from nodules; format: in vivo; settings: MRSM, 4 mg/kg every other day for 3 days; day 550; n = 1
# Protocol: Tattooed nodules were removed under local anesthesia (lidocaine-epinephrine) on study days -1, 90, 180–190, 270–290, 360 and 550 in a randomized order as previously described. Nodules were trimmed of excess tissue and up to four nodules per animal were processed separately as follows: (1) stored frozen at –80°C for PK analysis (up to day 14 only); (2) injected in toto with 10% neutral-buffered formalin and stored at 4°C for histopathology (up to day 290 only); or (3) dissected immediately in phosphate-buffered saline to separate adult male and female worms. The anterior end of the female worm (which even in viable specimens is the only motile part of the parasite) was removed from the worm mass and incubated alongside intact male worms for 30 min at 37°C for visual motility assessment on a three-point scale. The remaining portion of the female worm mass was subjectively scored for fecundity on a four-point scale (0, uteri empty or worm structure degraded; 1, low; 2, intermediate; 3, normal) by examining the uterine contents microscopically in situ. This was followed by a fully quantitative embryogram to enumerate oocytes, embryonic stages and intrauterine Mf as described previously.
# The second class of PD endpoint considered was worm motility, which was recorded as a three-class categorical variable and quantified here as a fraction of normal worm motility. […]
SMILES,"Adverse effects ([1]; 0.15 mg/kg IV, over 1 h following administration)",Rumen contraction ([1]; 0.15 mg/kg IV),"Heart rate ([1]; 0.75 mg/kg IV, 6 h post treatment, increasing from 72 bpm, normal on day 4)","Blood glucose concentration ([1]; 0.75 mg/kg IV, 8 h after treatment)","Blood glucose concentration ([1]; 0.75 mg/kg IV, by 24 h (within the normal range))",Rumen contraction ([1]; 0.75 mg/kg IV),Temperature and respiratory rates ([1]; 0.15 and 0.75 mg/kg IV),"Blood glucose, group-level 95% CI vs reference range 45–75 mg/dL ([2]; EMO1H, 0.75 mg/kg single dose, at 30 min, 2 and 6 h)","Blood glucose, group-level 95% CI vs reference range 45–75 mg/dL ([2]; EMO1L, 0.15 mg/kg single dose, at 30 min, 2 and 6 h)","Blood glucose, group-level 95% CI vs reference range 45–75 mg/dL ([2]; EMO7H, 0.75 mg/kg daily for 7 days, at 2 h)",no-observed-adverse-effect level [3],"Blood glucose, group-level 95% CI vs reference range 45–75 mg/dL ([2]; MRSM, 4 mg/kg every other day for 3 days, at 5 and 30 min and 2 h)",Median reduction in Mf load [4],Fraction of normal adult male worm motility [5]
CC(C)C[C@H]1C(=O)O[C@H](Cc2ccc(N3CCOCC3)cc2)C(=O)N(C)[C@@H](CC(C)C)C(=O)O[C@H](C)C(=O)N(C)[C@@H](CC(C)C)C(=O)O[C@H](Cc2ccc(N3CCOCC3)cc2)C(=O)N(C)[C@@H](CC(C)C)C(=O)O[C@H](C)C(=O)N1C [emodepside],mild muscular tremors and salivation,1.5 contractions/min,80 bpm,158 to 200 mg/dL,61 mg/dL,2 contractions/min,not affected,significantly above the standard reference range,significantly above the standard reference range,significantly above the standard reference range,4 to 5 mg/kg,,,
NCCS[As](SCCN)c1ccc(Nc2nc(N)nc(N)n2)cc1 [melarsomine],,,,,,,,,,,,significantly above the standard reference range,96%,0%

# From article PMC8202924, “Emodepside targets SLO-1 channels of Onchocerca ochengi and induces broad anthelmintic effects in a bovine model of onchocerciasis” (PLoS Pathogens, 2021)
